Reference: patent publication US9382568B2, “Determining the sensitivity of a cell to a drug” (RANDOX LABORATORIES LTD., priority 2008, dated 2016)

How the values were obtained:
[1] = test system: NCTC 13427 (lux+ cdd deficient E. coli MG 1655 expressing human dCK); assay: Response of bioluminescent bacterial biosensor (growth OD600 and light output); type: cell-based
From the text: (§1) Bacterial Strains, Plasmids and Growth Media. E. coli SØ5218 is a cdd-deficient strain expressing the human dCK cDNA on the IPTG-inducible pTrc99-A plasmid. E. coli MG1655 is a derivative of the wild-type E. coli K-12 with a requirement for pyrimidine in minimal medium, due to suboptimal expression of the orotate phosphoribosyltransferase gene coded for by pyrE. Both strains were made self-bioluminescent by transforming them with the broad-host vector pBBR1MCS-2 carrying the luxCDABE cassette from Photorhabdus luminescens as an EcoRI PCR fragment. Luria-Bertani (LB) medium was used for routine culturing of bacteria. The antibiotics ampicillin (to maintain pTrc-A) and kanamycin (to maintain pBBR1MCS-2) were added at 100 and 10 μg/ml, respectively. Growth inhibition experiments were performed in LB RPMI 1640 or in minimal salt medium (AB) plus 0.2% glucose, 0.2% vitamin-free casamino acids and supplemented with thiamine and leucine.
Construction of a cdd-deficient strain of E. coli MG 1655. A library of E. coli MG 1655 strains was constructed using transposition mutagenesis with P1 phage carrying the Tn10 transposon. Mutants carrying the transposon were selected for by plating on tetracycline (10 μg/ml) agar plates and cdd mutants were selected for by plating on to plates containing 10 μg/ml of the analogue 5-fluoro-2′ deoxycytidine which is toxic to E. coli expressing cdd. The phenotype of cdd mutants was confirmed by the absence of cytidine deaminase activity.
In order to measure Ara-C response in a nutrient rich intracellular environment, an alternative cdd-deficient strain of a bioluminescent E. coli MG1655 mutant was constructed using transposon mutagenesis, which was further transformed with pTrc99-A, to give IPTG inducible expression of dCK. […] One possible explanation for the light increase is that the DNA damage caused by Ara-CTP induces bioluminescence that could be used in DNA repair by a photo-reactivation process.
In order to increase the specificity of the proposed assay, direct effects of the active intracellular drug derivative, Ara-CTP, on the bacterial biosensor were monitored (FIG. 3A). […] To verify this, the assay was repeated with the addition of alkaline phosphatase at the start.

E. coli SØ5218 [2] = details: upon expression of human dCK gene (IPTG), Wang et al. 1998; cited from earlier work
E. coli SØ5218 [3] = assay: Growth of cdd-deficient E. coli mutant SØ5218 expressing human dCK; type: cell-based; details: rich growth medium (data not shown)
From the text: Ara-C has no effect on Escherichia coli as it lacks dCK and deaminates Ara-C into Ara-uracil through the activity of deoxycytidine deaminase (cdd). Wang et al., Antimicrob. Agents. […] The Ara-C effect on growth was completely abolished when assayed in the absence of the dCK inducible […], IPTG, indicating human dCK expression in the bacteria leads to Ara-CTP incorporation into bacterial DNA.
as §1, with “leucine. […]” for “leucine.”

AML [4] = assay: Clinical outcome of AML patients (Ara-C used in induction therapy); type: in vivo, human; design: key: NR = No remission; CR = Complete remission; details: Table 2 patient 4, diagnosis M4
[5] = test system: AML patient derived samples; assay: Cell Titer-Glo luminescent cell viability (cytotox) assay, patient samples; type: cell-based, human; details: 25 μM Ara-C 72 hours
Procedure: (§2) Cell lines, bone marrow and blood samples. The monocytic cell line KG-1a (DSMZ, Germany) was grown and maintained as a cell suspension in RPMI 1640 medium supplemented with 2 mM L-glutamine and 10% foetal calf serum. Mononuclear cell fractions were isolated from patient peripheral blood or bone marrow samples (n=8) using density gradient centrifugation (SG […]) followed by resuspension in RPMI 1640 medium prior to incubation with Ara-C. Cryopreserved bone marrow samples were thawed and re-suspended in RPMI 1640 medium prior to drug exposure.
(§3) Cell Lysis Assay. AML cell lines or patient derived samples were treated with 25 μM Ara-C for 90 min at 37° C. and 5% CO2, harvested, washed and resuspended in fresh RPMI 1640 medium. EDTA and saponin were added to final concentrations of 1.5 mM and 0.1%, respectively. Samples were then vortexed for 30 sec and cell debris were removed by centrifugation at 1027 g for 5 min. Samples from the lysate or supernatant were mixed with reporter bacteria, 1 mM of IPTG an 10 units of alkaline phosphatase. Bioluminescence and growth (OD600) of the bacteria were monitored in a multimode microplate reader. Sensitivity of AML cell lines or patient derived samples to Ara-C was also assayed using Cell Titer-Glo® Luminescent Cell Viability Assay kit (Promega). Samples were treated with 25 μM Ara-C for 72 hours at 37° C. and 5% CO2 before measuring intracellular levels of ATP according to manufacturer's instructions. Paired t-tests were used to analyse significant differences in bioluminescence output between control and treated assay samples.

KG-1a cells [6] = assay: Cell lysis assay with bioluminescent reporter bacteria, cell line; type: cell-based; details: KG-1a treated with 25 μM Ara-C, p=0.0001
Procedure: as §2
as §3, with “Samples were treated with 25 μM Ara-C for 72 hours at 37° C. and 5% CO2 before measuring intracellular levels of ATP according to manufacturer's instructions. Paired t-tests were used to analyse significant differences in bioluminescence output between control and treated assay samples.” left out

KG-1a cells [7] = assay: Cell Titer-Glo luminescent cell viability (three day cytotoxicity) assay, cell line; type: cell-based; details: 25 μM Ara-C, 72 hours
Procedure: as §2
as §3, with “Samples were treated with 25 μM Ara-C for 72 hours at 37° C. and 5% CO2 before measuring intracellular levels of ATP according to manufacturer's instructions. Paired t-tests were used to analyse significant differences in bioluminescence output between control and treated assay samples.” left out

Escherichia coli = details: lacks dCK, deaminates Ara-C via cdd; cited from earlier work
AML [8] = assay: Clinical outcome of AML patients (Ara-C used in induction therapy); type: in vivo, human; design: key: NR = No remission; CR = Complete remission
Procedure: The assay was evaluated using a KG-1a cell line and AML samples from patients with known response to Ara-C used in induction therapy. FIG. 6 depicts the light output from the lysate of the Ara-C sensitive cell line KG-1a treated with high (25 μM) Ara-C concentrations. […] The three day cytotoxicity test confirmed that KG-1a cells are sensitive to Ara-C.
The cell lysis assay was applied to clinical samples of peripheral blood ([…]) from AML patients. These preliminary assays, conducted on 7 clinical samples, gave 100% correlation with clinical response to therapy.

[9] = test system: AML patient derived samples; assay: Cell lysis assay with bioluminescent reporter bacteria, patient samples; type: cell-based, human; details: for Bioluminescent Assay (sensitive): 25 μM Ara-C 90 min; for Treatment % difference in peak RLU a) L:LI / Treatment % difference in peak RLU b) L:LIP / Treatment % difference in peak RLU c) LI:LIP: drug treated minus control
Procedure: as §2, §3
A representation of light output during the bioluminescent assay for patients who are metabolic sensitive, metabolic resistant, metabolic partially resistant and uptake resistant is shown in FIG. 5.
Table 3 validates the application of the bioluminescent assay using relative percentage differences in peak light output from the various treatments to identify resistant and sensitive patients. Data shown in Table 3 is computed according to the equation {[RLU drug treated sample (LIP/LI)−RLU control (LIP/LI)]×100}, using c) as an example.

[10] = Table 2 patient 1, diagnosis M2
[11] = Table 2 patient 2, diagnosis M4
[12] = Table 2 patient 3, diagnosis M2
[13] = Table 2 patient 4, diagnosis M4
[14] = Table 2 patient 5, diagnosis M4
[15] = Table 2 patient 6, diagnosis M0
[16] = Table 2 patient 7, diagnosis M3

With `Nc1ccn([C@@H]2O[C@H](COP(=O)(O)OP(=O)(O)OP(=O)(O)O)[C@@H](O)[C@@H]2O)c(=O)n1` [Ara-CTP] the “direct entry into reporter bacteria” value ([1]; Ara-CTP added without alkaline phosphatase, FIG. 3A) was “does not directly enter reporter bacteria”, the “time after which increase in light output was evident” value ([1]; alkaline phosphatase added at the start, FIG. 3B) was 3 to 5 h and the “time of growth after which increase in light output was observed” value ([1]; no alkaline phosphatase added) was “at least 15 h”.
In the case of `Nc1ccn([C@@H]2O[C@H](CO)[C@@H](O)[C@@H]2O)c(=O)n1` [Ara-C], the “relative growth of SØ5218” value (E. coli SØ5218 [2]) is given as “reduced relative growth”, the “response of SØ5218” value (E. coli SØ5218 [3]) is given as “did not respond” and the “light output (bioluminescence, RLU) of reporter strain” value ([1]; drug-treated cultures, IPTG present, p=0.0001) is given as “significant increase in light output”. For the same molecule, the “growth (OD600) of reporter strain” value ([1]; in the presence of Ara-C, induced by IPTG, nutrient rich medium) was “reduced growth”, the “lowest concentration the bacterial biosensor responds to” value ([1]; low concentrations of Ara-C, FIG. 2) was 0.05 µM and the “Clinical Outcome” value (AML [4]) was “CR”. The “Cytotox Assay (DLO)” value [5, 10] was 84%, the “Cytotox Assay (DLO)” value [5, 11] was 99% and the “Cytotox Assay (DLO)” value [5, 12] was 79%. The “Cytotox Assay (DLO)” value [5, 13] was 99%, the “Cytotox Assay (DLO)” value [5, 14] was 62% and the “Cytotox Assay (DLO)” value [5, 15] was 5%. The “Cytotox Assay (DLO)” value [5, 16] was 91%, the “light output from IPTG-induced lysate with BAP” value (KG-1a cells [6]) was “significant increase in the light output” and the “light output from IPTG-induced lysate without BAP” value (KG-1a cells [6]) was “significant increase in the light output”. For the same molecule, the “three day cytotoxicity test” value (KG-1a cells [7]) was “sensitive”, the “effect on Escherichia coli” value (Escherichia coli) was “no effect” and the “Clinical Outcome” value (AML [8]; [10]) was “NR”. The “Clinical Outcome” value (AML [8]; [11]) was “CR”, the “Clinical Outcome” value (AML [8]; [12]) was “NR” and the “Clinical Outcome” value (AML [8]; [14]) was “NR”. The “Clinical Outcome” value (AML [8]; [15]) was “NR”, the “Clinical Outcome” value (AML [8]; Table 2 patient 7, diagnosis M3 (Remission, death)) was “Remission” and the “Clinical Outcome” value (AML [8]; Table 3 patient 1) was “sensitive”. The “Clinical Outcome” value (AML [8]; Table 3 patient 2) was “sensitive”, the “Clinical Outcome” value (AML [8]; Table 3 patient 3) was “resistant” and the “Clinical Outcome” value (AML [8]; Table 3 patient 7) was “resistant”. The “Bioluminescent Assay (sensitive)” value [9, 10] was “No”, the “Bioluminescent Assay (sensitive)” value [9, 11] was “Yes” and the “Bioluminescent Assay (sensitive)” value [9, 12] was “No”. The “Bioluminescent Assay (sensitive)” value [9, 13] was “Yes”, the “Bioluminescent Assay (sensitive)” value [9, 14] was “No” and the “Bioluminescent Assay (sensitive)” value [9, 15] was “No”. The “Bioluminescent Assay (sensitive)” value [9, 16] was “No”, the “interaction of the drug with the patient sample (uptake and metabolism category)” value (“interaction of the drug” below) ([9]; Table 3 patient 1) was “take up and metabolise the drug” and the “Treatment % difference in peak RLU a) L:LI” value ([9]; Table 3 patient 1) was −10.25%. The “Treatment % difference in peak RLU b) L:LIP” value ([9]; Table 3 patient 1) was 19.20%, the “Treatment % difference in peak RLU c) LI:LIP” value ([9]; Table 3 patient 1) was 24.19% and the “interaction of the drug” value ([9]; Table 3 patient 2) was “take up and metabolise the drug”. The “Treatment % difference in peak RLU a) L:LI” value ([9]; Table 3 patient 2) was −4.00%, the “Treatment % difference in peak RLU b) L:LIP” value ([9]; Table 3 patient 2) was 62.40% and the “Treatment % difference in peak RLU c) LI:LIP” value ([9]; Table 3 patient 2) was 48.03%. The “interaction of the drug” value ([9]; Table 3 patient 3) was “takes up but does not metabolise the drug”, the “Treatment % difference in peak RLU a) L:LI” value ([9]; Table 3 patient 3) was −81.04% and the “Treatment % difference in peak RLU b) L:LIP” value ([9]; Table 3 patient 3) was −120.00%. For the same molecule, the “Treatment % difference in peak RLU c) LI:LIP” value ([9]; Table 3 patient 3) was −4.51%, the “interaction of the drug” value ([9]; Table 3 patient 4, not clinically confirmed) was “resistant to take up of the drug” and the “Treatment % difference in peak RLU a) L:LI” value ([9]; Table 3 patient 4) was 2.28%. The “Treatment % difference in peak RLU b) L:LIP” value ([9]; Table 3 patient 4) was 3.28%, the “Treatment % difference in peak RLU c) LI:LIP” value ([9]; Table 3 patient 4) was 0.88% and the “Treatment % difference in peak RLU a) L:LI” value ([9]; Table 3 patient 5) was −61.46%. The “Treatment % difference in peak RLU b) L:LIP” value ([9]; Table 3 patient 5) was −98.39%, the “Treatment % difference in peak RLU c) LI:LIP” value ([9]; Table 3 patient 5) was −13.87% and the “Treatment % difference in peak RLU a) L:LI” value ([9]; Table 3 patient 6) was −13.59%. The “Treatment % difference in peak RLU b) L:LIP” value ([9]; Table 3 patient 6) was −7.03%, the “Treatment % difference in peak RLU c) LI:LIP” value ([9]; Table 3 patient 6) was 5.50% and the “Treatment % difference in peak RLU a) L:LI” value ([9]; Table 3 patient 7) was −16.37%. For the same molecule, the “Treatment % difference in peak RLU b) L:LIP” value ([9]; Table 3 patient 7) was −16.37% and the “Treatment % difference in peak RLU c) LI:LIP” value ([9]; Table 3 patient 7) was 1.20%.
